Entries after “also recorded” stand apart in the source; their conditions may differ.
How the values were obtained:
Assay type in all cases: cell-based
human M4 (hM4) [1] = molecular target: T1, human M4 (hM4) (Homo sapiens, UniProt P08173); experiment: M4 multiparametric FLIPR calcium assay, PAM mode; settings: compound tested at 3 µM, versus EC20 acetylcholine
T1 sequence (P08173 1-479): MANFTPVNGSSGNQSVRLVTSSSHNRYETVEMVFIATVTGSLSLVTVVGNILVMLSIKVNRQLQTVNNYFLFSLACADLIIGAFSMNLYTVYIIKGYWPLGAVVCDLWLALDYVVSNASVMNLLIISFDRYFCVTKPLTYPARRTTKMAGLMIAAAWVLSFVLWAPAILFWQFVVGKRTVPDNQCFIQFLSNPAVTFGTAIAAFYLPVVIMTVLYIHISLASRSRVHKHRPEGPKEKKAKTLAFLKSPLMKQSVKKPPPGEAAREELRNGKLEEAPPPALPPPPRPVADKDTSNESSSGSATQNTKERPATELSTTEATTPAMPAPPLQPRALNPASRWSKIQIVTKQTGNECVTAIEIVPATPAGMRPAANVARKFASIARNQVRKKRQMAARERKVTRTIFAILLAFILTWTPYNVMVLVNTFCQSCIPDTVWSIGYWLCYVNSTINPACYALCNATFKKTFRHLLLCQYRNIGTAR

human M4 (hM4) [2] = molecular target: T1, human M4 (hM4); experiment: M4 multiparametric FLIPR calcium assay, agonist mode; settings: compound tested at 3 µM, versus DMSO
human M4 (hM4) [3] = molecular target: T1, human M4 (hM4); experiment: M4 multiparametric FLIPR calcium assay, antagonist mode; settings: compound tested at 3 µM, versus EC80 acetylcholine

## COc1ccc(CNC(=O)c2sc3nc(C)cc(C)c3c2N)cc1 [ML108]
Human M4 (hM4) [1]
  response in PAM mode (kinetic trace): classified as PAMs
Human M4 (hM4) [2]
  response in agonist mode (kinetic trace): active; also recorded: yielded responses in the agonist mode

## C/C=C(/C)C(=O)O[C@H]1C(C)=C2[C@H]([C@@H]1OC(=O)CCCCCCC)[C@@](C)(OC(C)=O)C[C@H](OC(=O)CCC)[C@@]1(O)[C@H]2OC(=O)[C@@]1(C)O [thapsigargin]
Human M4 (hM4) [3]
  response in antagonist mode (kinetic trace): hit in all modes
Human M4 (hM4) [1]
  response in PAM mode (kinetic trace): hit in all modes
Human M4 (hM4) [2]
  response in agonist mode (kinetic trace): hit in all modes

Reference: article PMC4659430 (Journal of biomolecular screening, 2015)
